Reference: ChEMBL document CHEMBL3044741, “Synthesis of novel biologically active methylene derivatives of sydnones” (Med Chem Res, 2013)
≈ marks a conversion by molar mass, not a printed value.

How the values were obtained:
Format in all cases: functional
[1] = test system: SNB-75; assay: Cytotoxicity against human SNB75 assessed as cell growth at high concentration
[2] = test system: UACC-257; assay: Cytotoxicity against human UACC257 assessed as cell growth at high concentration
[3] = test system: SNB-19; assay: Cytotoxicity against human SNB19 assessed as cell growth at high concentration
[4] = test system: NCI-H522; assay: Cytotoxicity against human NCI-H522 assessed as cell growth at high concentration
[5] = test system: NCI-H23; assay: Cytotoxicity against human NCI-H23 assessed as cell growth at high concentration
[6] = test system: SR; assay: Cytotoxicity against human SR assessed as cell growth at high concentration
[7] = test system: 786-0; assay: Cytotoxicity against human 786-0 assessed as cell growth at high concentration
[8] = test system: SF-295; assay: Cytotoxicity against human SF295 assessed as cell growth at high concentration
[9] = test system: Hs-578T; assay: Cytotoxicity against human Hs 578T assessed as cell growth at high concentration
[10] = test system: NCI-H322M; assay: Cytotoxicity against human NCI-H322M assessed as cell growth at high concentration
[11] = test system: SK-MEL-28; assay: Cytotoxicity against human SK-MEL-28 assessed as cell growth at high concentration
[12] = test system: COLO 205; assay: Cytotoxicity against human COLO205 assessed as cell growth at high concentration
[13] = test system: CCRF-CEM; assay: Cytotoxicity against human CCRF-CEM assessed as cell growth at high concentration
[14] = test system: SK-MEL-2; assay: Cytotoxicity against human SK-MEL-2 assessed as cell growth at high concentration
[15] = test system: MCF7; assay: Cytotoxicity against human MCF7 assessed as cell growth at high concentration
[16] = test system: HCC 2998; assay: Cytotoxicity against human HCC2998 assessed as cell growth at high concentration
[17] = test system: Aspergillus clavatus; assay: Antifungal activity against Aspergillus clavatus MTCC 1323
[18] = test system: MOLT-4; assay: Cytotoxicity against human MOLT4 assessed as cell growth at high concentration
[19] = test system: Aspergillus niger; assay: Antifungal activity against Aspergillus niger MTCC 282
[20] = test system: HCT-116; assay: Cytotoxicity against human HCT116 assessed as cell growth at high concentration
[21] = test system: Escherichia coli; assay: Antibacterial activity against Escherichia coli MTCC 443 at 250 ug/ml after 24 hrs by Kirby-Bauer method; details: MTCC 443, 24 h, read-out: IZ
[22] = test system: TK-10; assay: Cytotoxicity against human TK10 assessed as cell growth at high concentration
[23] = test system: T47D; assay: Cytotoxicity against human T47D assessed as cell growth at high concentration
[24] = test system: EKVX; assay: Cytotoxicity against human EKVX assessed as cell growth at high concentration
[25] = test system: KM12; assay: Cytotoxicity against human KM12 assessed as cell growth at high concentration
[26] = test system: HT-29; assay: Cytotoxicity against human HT-29 assessed as cell growth at high concentration
[27] = test system: RXF 393; assay: Cytotoxicity against human RXF393 assessed as cell growth at high concentration
[28] = test system: Streptococcus pyogenes; assay: Antibacterial activity against Streptococcus pyogenes MTCC 442 after 24 hrs by broth dilution method; details: MTCC 442, 24 h
[29] = test system: M14; assay: Cytotoxicity against human M14 assessed as cell growth at high concentration
[30] = test system: Candida albicans; assay: Antifungal activity against Candida albicans MTCC 227 at 250 ug/ml after 74 hrs by Kirby-Bauer method; details: MTCC 227, 74 h, read-out: IZ
[31] = test system: SN12C; assay: Cytotoxicity against human SN12C assessed as cell growth at high concentration
[32] = test system: OVCAR-4; assay: Cytotoxicity against human OVCAR4 assessed as cell growth at high concentration
[33] = test system: OVCAR-8; assay: Cytotoxicity against human OVCAR8 assessed as cell growth at high concentration
[34] = test system: MDA-MB-435; assay: Cytotoxicity against human MDA-MB-435 assessed as cell growth at high concentration
[35] = test system: Pseudomonas aeruginosa; assay: Antibacterial activity against Pseudomonas aeruginosa MTCC 424 at 250 ug/ml after 24 hrs by Kirby-Bauer method; details: MTCC 424, 24 h, read-out: IZ
[36] = test system: CAKI-1; assay: Cytotoxicity against human Caki1 assessed as cell growth at high concentration
[37] = test system: NCI-H226; assay: Cytotoxicity against human NCI-H226 assessed as cell growth at high concentration
[38] = test system: OVCAR-3; assay: Cytotoxicity against human OVCAR3 assessed as cell growth at high concentration
[39] = test system: SF-539; assay: Cytotoxicity against human SF539 assessed as cell growth at high concentration
[40] = test system: HOP-62; assay: Cytotoxicity against human HOP62 assessed as cell growth at high concentration
[41] = test system: NCI-H460; assay: Cytotoxicity against human NCI-H460 assessed as cell growth at high concentration
[42] = test system: A549; assay: Cytotoxicity against human A549 assessed as cell growth at high concentration
[43] = test system: MDA-MB-468; assay: Cytotoxicity against human MDA-MB-468 assessed as cell growth at high concentration
[44] = test system: RPMI-8226; assay: Cytotoxicity against human RPMI8226 assessed as cell growth at high concentration
[45] = test system: Staphylococcus aureus; assay: Antibacterial activity against Staphylococcus aureus MTCC 96 at 250 ug/ml after 24 hrs by Kirby-Bauer method; details: MTCC 96, 24 h, read-out: IZ
[46] = test system: UO-31; assay: Cytotoxicity against human UO31 assessed as cell growth at high concentration
[47] = test system: Streptococcus pyogenes; assay: Antibacterial activity against Streptococcus pyogenes MTCC 442 at 250 ug/ml after 24 hrs by Kirby-Bauer method; details: MTCC 442, 24 h, read-out: IZ
[48] = test system: A498; assay: Cytotoxicity against human A498 assessed as cell growth at high concentration
[49] = test system: U-251; assay: Cytotoxicity against human U251 assessed as cell growth at high concentration
[50] = test system: SK-MEL-5; assay: Cytotoxicity against human SK-MEL-5 assessed as cell growth at high concentration
[51] = test system: MDA-MB-231; assay: Cytotoxicity against human MDA-MB-231 assessed as cell growth at high concentration
[52] = test system: Pseudomonas aeruginosa; assay: Antibacterial activity against Pseudomonas aeruginosa MTCC 424 after 24 hrs by broth dilution method; details: MTCC 424, 24 h
[53] = test system: Aspergillus clavatus; assay: Antifungal activity against Aspergillus clavatus MTCC 1323 at 250 ug/ml after 74 hrs by Kirby-Bauer method; details: MTCC 1323, 74 h, read-out: IZ
[54] = test system: Malme-3M; assay: Cytotoxicity against human MALME-3M assessed as cell growth at high concentration
[55] = test system: Candida albicans; assay: Antifungal activity against Candida albicans MTCC 227
[56] = test system: SW-620; assay: Cytotoxicity against human SW620 assessed as cell growth at high concentration
[57] = test system: HCT-15; assay: Cytotoxicity against human HCT15 assessed as cell growth at high concentration
[58] = test system: LOX IMVI; assay: Cytotoxicity against human LOXIMVI assessed as cell growth at high concentration
[59] = test system: IGROV-1; assay: Cytotoxicity against human IGROV1 assessed as cell growth at high concentration
[60] = test system: SK-OV-3; assay: Cytotoxicity against human SKOV3 assessed as cell growth at high concentration
[61] = test system: Aspergillus niger; assay: Antifungal activity against Aspergillus niger MTCC 282 at 250 ug/ml after 74 hrs by Kirby-Bauer method; details: MTCC 282, 74 h, read-out: IZ
[62] = test system: SF-268; assay: Cytotoxicity against human SF268 assessed as cell growth at high concentration
[63] = test system: UACC-62; assay: Cytotoxicity against human UACC62 assessed as cell growth at high concentration
[64] = test system: BT-549; assay: Cytotoxicity against human BT549 assessed as cell growth at high concentration
[65] = test system: K562; assay: Cytotoxicity against human K562 assessed as cell growth at high concentration
[66] = test system: DU-145; assay: Cytotoxicity against human DU145 assessed as cell growth at high concentration
[67] = test system: Staphylococcus aureus; assay: Antibacterial activity against Staphylococcus aureus MTCC 96 after 24 hrs by broth dilution method; details: MTCC 96, 24 h
[68] = test system: PC-3; assay: Cytotoxicity against human PC3 assessed as cell growth at high concentration
[69] = test system: Escherichia coli; assay: Antibacterial activity against Escherichia coli MTCC 443 after 24 hrs by broth dilution method; details: MTCC 443, 24 h
[70] = test system: HL-60(TB); assay: Cytotoxicity against human HL-60(TB) assessed as cell growth at high concentration
[71] = Cytotoxicity against human NCI-ADR-RES assessed as cell growth at high concentration

Compound `[O-]c1on[n+](-c2ccc(Cc3ccc(-[n+]4noc([O-])c4CN4CCOCC4)cc3)cc2)c1CN1CCOCC1` has an Activity [1] of 72.63%, an Activity [2] of 75.14% and an Activity [3] of 86.48%. For the same compound, the Activity [4] was 36.96%, the Activity [5] was 62.15% and the Activity [6] was 23.05%. For the same compound, the Activity [7] was 73.96%, the Activity [8] was 44.14% and the Activity [9] was 64.02%. It also gave an Activity [10] of 82.54%, an Activity [11] of 74.89% and an Activity [12] of 99.94%. For the same compound, the Activity [13] was 63.93%, the Activity [14] was 78.61% and the Activity [15] was 45.59%. For the same compound, the Activity [16] was 80.48%, the MIC [17] was 500 µg/mL (≈ 935 µM) and the Activity [18] was 68.41%. The MIC [19] was 250 µg/mL (≈ 468 µM), the Activity [20] was 63.75% and the zone of inhibition at 250 µg/mL [21] was 18 mm. The Activity [22] was 74.48%, the Activity [23] was 56.09% and the Activity [24] was 69.86%. The Activity [25] was 54.32%, the Activity [26] was 89.7% and the Activity [27] was 72.21%. The MIC [28] was 250 µg/mL (≈ 468 µM), the Activity [29] was 69.54% and the zone of inhibition at 250 µg/mL [30] was 23 mm. For the same compound, the Activity [31] was 80.32%, the Activity [32] was 53.91% and the Activity [33] was 80.93%. For the same compound, the Activity [34] was 4.71%, the zone of inhibition at 250 µg/mL [35] was 21 mm and the Activity [36] was 49.27%. For the same compound, the Activity [37] was 85.46%, the Activity [38] was 89.12% and the Activity [39] was 77.5%. The Activity [40] was 77%, the Activity [41] was 82.89% and the Activity [42] was 69.06%. For the same compound, the Activity [43] was 11.42%, the Activity [44] was 60.49% and the zone of inhibition at 250 µg/mL [45] was 21 mm. The Activity [46] was 44.31%, the zone of inhibition at 250 µg/mL [47] was 19 mm and the Activity [48] was 53.74%. The Activity [49] was 62.81%, the Activity [50] was 53.16% and the Activity [51] was 60.45%. For the same compound, the MIC [52] was 125 µg/mL (≈ 234 µM), the zone of inhibition at 250 µg/mL [53] was 24 mm and the Activity [54] was 65.64%. It also gave an MIC [55] of 500 µg/mL (≈ 935 µM), an Activity [56] of 67.72% and an Activity [57] of 78.57%. For the same compound, the Activity [58] was 65.03%, the Activity [59] was 62.3% and the Activity [60] was 87.98%. It also gave a zone of inhibition at 250 µg/mL [61] of 23 mm, an Activity [62] of 78.33% and an Activity [63] of 53.38%. The Activity [64] was 60.72%, the Activity [65] was 26.39% and the Activity [66] was 100.94%. It also gave an MIC [67] of 100 µg/mL (≈ 187 µM), an Activity [68] of 56.45% and an MIC [69] of 250 µg/mL (≈ 468 µM). It also gave an Activity [70] of 86.39% and an Activity [71] of 63.42%.
